These results are taken from patent US20120316203A1, “Compositions and Methods for Inhibition of Cancers” (THE OHIO STATE UNIVERSITY RESEARCH FOUNDATION, priority 2009, published 2012).

Test [1] concerns A2780 cells. Nature of the test: Cell-cycle analysis by flow cytometry. The conditions noted are these: 6, 12, or 24 hours, versus nontreated control. In kind it is cell-based, human. On the procedure: Cells were treated with HO-3867 (10 μmol/L) for 24 hours, trypsinized, washed in PBS, and fixed in an ice-cold 75% ethanol/PBS solution. The DNA was labeled with propidium iodide. Cells were sorted by flow cytometry and cell cycle profiles were determined using ModFit LT software (Becton Dickinson).
We next examined whether the growth inhibition of A2780 cells by HO-3867 was caused by cell cycle arrest. Cells were treated with HO-3867 for 6, 12, or 24 hours; fixed; and cell cycle populations were determined by flow cytometry.
(In general: In flow cytometry, cells or beads pass a laser one at a time.)

For test [2], the system named is A2780R, SKOV3, OV4, and OVCAR3 cells. Nature of the test: Western blot of apoptosis and JAK/STAT3 in four additional ovarian cancer cell lines. In kind it is cell-based, human. To be noted: 10 μmol/L, 24 hours, all four cell lines. On the procedure:
Cells in RPMI 1640 were treated with DMSO (control) or HO-3867 (10 μmol/L) for 24 hours. Equal volumes of DMSO (0.1% v/v) were present in each treatment. Following treatment, the cell lysates were prepared in non-denaturing lysis buffer containing 10 mmol/L Tris-HCl (pH 7.4), 150 mmol/L NaCl, 1% Triton X-100, 1 mmol/L EDTA, 1 mmol/L EGTA, 0.3 mmol/L phenylmethyl-sulfonyl fluoride, 0.2 mmol/L sodium orthovanadate, 0.5% NP40, 1 μg/mL aprotinin, and 1 μg/mL leupetin. The lysates were centrifuged at 10,000×g for 20 minutes at 4° C. and the supernatant was separated. The protein concentration in the lysates was determined using a Pierce detergent-compatible protein assay kit. For Western blotting, 25 to 50 μg of protein lysate per sample were denatured in 2×SDS-PAGE sample buffer and subjected to SDS-PAGE on a 10% tris-glycine gel. The separated proteins were transferred to a polyvinylidene fluoride membrane and were blocked with 5% nonfat milk powder (w/v) in TBST (10 mmol/L Tris, 10 mmol/L NaCl, 0.1% Tween 20) for 1 hour at room temperature or overnight at 4° C. […] The bound antibodies were detected with horseradish peroxidase-labeled sheep anti-mouse IgG or horseradish peroxidase-labeled donkey anti-rabbit IgG using an enhanced chemiluminescence detection system (ECL Advanced kit). Protein expressions were determined using the Image Gauge v. […]
For orientation: In western blotting, separated proteins are transferred to a membrane and probed.

In test [3] the test system is A2780 xenograft tumor tissue. Nature of the test: Immunoblot analysis of excised xenograft tumor tissue (JAK/STAT3, targets, apoptosis). It counts as in vivo, BALB/c nude mice. Here is the method: Cells in RPMI 1640 were treated with DMSO (control) or HO-3867 (10 μmol/L) for 24 hours. Equal volumes of DMSO (0.1% v/v) were present in each treatment. Following treatment, the cell lysates were prepared in non-denaturing lysis buffer containing 10 mmol/L Tris-HCl (pH 7.4), 150 mmol/L NaCl, 1% Triton X-100, 1 mmol/L EDTA, 1 mmol/L EGTA, 0.3 mmol/L phenylmethyl-sulfonyl fluoride, 0.2 mmol/L sodium orthovanadate, 0.5% NP40, 1 μg/mL aprotinin, and 1 μg/mL leupetin. The lysates were centrifuged at 10,000×g for 20 minutes at 4° C. and the supernatant was separated. The protein concentration in the lysates was determined using a Pierce detergent-compatible protein assay kit. For Western blotting, 25 to 50 μg of protein lysate per sample were denatured in 2×SDS-PAGE sample buffer and subjected to SDS-PAGE on a 10% tris-glycine gel. The separated proteins were transferred to a polyvinylidene fluoride membrane and were blocked with 5% nonfat milk powder (w/v) in TBST (10 mmol/L Tris, 10 mmol/L NaCl, 0.1% Tween 20) for 1 hour at room temperature or overnight at 4° C. The membranes were then incubated with the primary antibodies. The bound antibodies were detected with horseradish peroxidase-labeled sheep anti-mouse IgG or horseradish peroxidase-labeled donkey anti-rabbit IgG using an enhanced chemiluminescence detection system (ECL Advanced kit). Protein expressions were determined using the Image Gauge v. 3.45 software.
Cultured A2780 cancer cells (2×10^6 cells in […] of PBS) were s.c. injected into the back of 6-week-old BALB/c nude mice from the National Cancer Institute. Five to 7 days later, when the tumors reached 3 to 5 mm in diameter, the mice were divided (n=9/group) in a manner to equalize the mean tumor diameter among the groups. The control group was given a normal diet (no treatment), whereas the experimental groups were treated using the DAP compounds mixed with the animal feed (Harlan Teklad) at three different levels (25, 50, and 100 ppm). The doses were chosen based on an initial dose-response study optimized to produce an observable effect on tumor growth. The size of the tumor was measured twice per week using a digital Vernier caliper. The tumor volume was determined from the orthogonal dimensions (d1, d2, d3) using the formula (d1×d2×d3)×π/6. Thirty five days after the beginning of HO-3867 treatment, the mice were sacrificed and the tumors were resected. The tumor tissues were then subjected to immunoblot analysis.

Test [4] deals with A2780 cells. Briefly: Intracellular ROS by DCF fluorescence, A2780. In kind it is cell-based, human. The conditions noted are these: 5 or 10 μM, 12 h. Here is the method:
The ROS levels in cells treated with DAPs were determined using H2DCF-DA, a membrane-permeative fluorogenic probe. The acetate and acetoxymethyl ester groups of this probe are enzymatically cleaved inside living cells. The probe can then be oxidized by intracellular oxidants (ROS) to give a product, DCF, which emits a strong, green fluorescence (λex=504 nm; λem=529 nm). The fluorescence intensity is proportional to the level of cellular oxidants. Cells, grown to 80% confluence on 6-mm glass coverslips, were treated with […] H-4073, HO-3867, H-4318, or HO-4200 for 12 h, followed by incubation with H2DCF-DA. The cells were further incubated in the dark for 20 min and washed with protein-free medium, and then fluorescence images were immediately captured with a Nikon Eclipse TE2000-U camera system using excitation/emission at 495/520 nm. The captured images were then analyzed using MetaMorph image analysis software.

Test [5] deals with FAS and FAK in A2780 and SKOV3 cells. Nature of the test: FAS and FAK protein and mRNA expression in ovarian cancer cells. In kind it is cell-based, human. To be noted: 10 μM. Here is the method:
Cells in RPMI 1640 medium were treated with DMSO (control) or HO-3867 (10 μM) for 24 h. Equal volumes of DMSO (0.1% v/v) were present in each treatment. Following treatment, the cell lysates were prepared in nondenaturing lysis buffer containing 10-mM Tris-HCl (pH 7.4), 150-mM NaCl, 1% Triton X-100, 1-mM EDTA, 1-mM EGTA, 0.3-mM phenylmethylsulfonyl fluoride, 0.2-mM sodium orthovanadate, 0.5% NP40, 1-μg/ml aprotinin, and 1-μg/ml leupetin. The lysates were centrifuged at 10,000×g for 20 min at 4° C., and the supernatant was separated. The protein concentration in the lysates was determined using a Pierce detergent-compatible protein assay kit. For Western blotting, 25 to 50 μg of protein lysate per sample was denatured in 2×SDS-PAGE sample buffer and subjected to SDS-PAGE on a 10% tris-glycine gel. […] The bound antibodies were detected with horseradish peroxidase (HRP)-labeled sheep anti-mouse IgG or HRP-labeled donkey anti-rabbit IgG using an enhanced chemiluminescence detection system (ECL Advanced kit). Protein expressions were determined using Image Gauge version 3.45.
Total RNA isolated from ovarian tumor tissue was prepared with TRIzol (Life Technologies, Grand Island, N.Y.) according to the manufacturer's instructions. RNA quantification was done using spectrophotometry. […]

As to `CC1(C)C=C(CN2C/C(=C\c3ccc(F)cc3)C(=O)/C(=C/c3ccc(F)cc3)C2)C(C)(C)N1O` [HO-3867, 1-[(1-oxyl-2,2,5,5-tetramethyl-2,5-dihydro-1H-pyrrol-3-yl)methyl]-(3E,5E)-3,5-bis(4-fluorobenzylidene)piperidin-4-one], in the test on A2780 cells [1], the “percentages of the cell population in the G2-M and sub-G1 phases” value is on record as “significantly higher”. In test [2], the “caspase-3 and PARP cleavage” value was “clearly showed caspase-3 and PARP cleavage”; the “expression levels of pSTAT3 and JAK1” value is on record as “decrease”. Besides, in test [3] (mouse, in vivo), the “cleaved caspase-3 and PARP in tumors” value was “significant induction”; the “cyclin D1, VEGF, Bcl-2, and Survivin levels in tumors” value is “clear decrease”; the “pJAK levels in tumor tissues” value was “did not observe any significant change”; the “total JAK levels in tumor tissues” value is “clear downregulation”. The “pSTAT3 Tyr705 and Ser727 levels in tumor tissue” value in test [3] (without affecting total STAT3) is “decreased expressions”. Also, in the test on A2780 cells [4], the “intracellular ROS generation (DCF fluorescence) in A2780 cells” value is reported as “comparable in inducing ROS generation”. Besides, the “FAS and FAK, protein and expression levels” value in test [5] was “incubation-time-dependent inhibition”.
